The text below walks through data of ChEMBL document CHEMBL1138830, “On the function of the 14 A long internal cavity of histone deacetylase-like protein: implications for the design of histone deacetylase inhibitors” (J Med Chem, 2004).

The structures appear in SMILES notation.

The assay has as its target Histone deacetylase 1 (Homo sapiens, UniProt Q13547). The experiment in a line: Inhibitory activity against human Histone deacetylase 1.

Sequence of Histone deacetylase 1 (Q13547 whole entry): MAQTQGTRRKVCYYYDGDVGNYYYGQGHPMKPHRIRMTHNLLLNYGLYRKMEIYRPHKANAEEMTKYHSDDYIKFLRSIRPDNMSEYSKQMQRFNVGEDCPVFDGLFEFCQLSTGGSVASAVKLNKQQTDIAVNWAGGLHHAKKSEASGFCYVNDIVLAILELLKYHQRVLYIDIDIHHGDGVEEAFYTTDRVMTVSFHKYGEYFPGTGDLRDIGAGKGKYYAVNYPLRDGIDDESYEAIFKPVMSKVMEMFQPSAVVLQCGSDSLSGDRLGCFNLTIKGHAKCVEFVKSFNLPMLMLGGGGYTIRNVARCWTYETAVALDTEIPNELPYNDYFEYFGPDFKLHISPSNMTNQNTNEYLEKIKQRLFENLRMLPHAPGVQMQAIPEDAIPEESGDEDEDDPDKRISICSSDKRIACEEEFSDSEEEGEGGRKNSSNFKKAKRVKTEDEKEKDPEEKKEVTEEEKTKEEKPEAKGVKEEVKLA

In the case of `O=C(CCCCCC(C(=O)Nc1ccc2ncccc2c1)C(=O)Nc1ccc2ncccc2c1)NO`, the concentration for half-maximal inhibition (IC50) – broadly, the point on the concentration scale where inhibition reaches its midpoint – came out at 1 nM. That is a single-digit nanomolar value. As for `O=C(/C=C/c1cccc(C(C(=O)Nc2ccccc2)C(=O)Nc2ccccc2)c1)NO`, the figure is 1 nM; as for `O=C(CCCCCC(NC(=O)OCc1ccccc1)C(=O)Nc1cccc2cccnc12)NO` (stereo not drawn), 2.5 nM.
